Results taken from paper PMC11017246, “Discovery of GLPG2737, a Potent Type 2 Corrector of CFTR for the Treatment of Cystic Fibrosis in Combination with a Potentiator and a Type 1 Co-corrector” (Journal of Medicinal Chemistry, 2024).
Where two headings read alike, the source gives them in different places.

Tests used:
[1] = Hepatocyte stability, rat; type: in vitro ADME; conditions: for CLint scaled at 1 μM: read-out: Hep CLint,u rat (converted)
Experimental: The hepatocyte stability assay was performed by incubation of test compound at 1 μM, 0.03% DMSO in modified Krebs–Henseleit buffer with suspension of pooled cryopreserved hepatocytes (BioIVT, Hicksville, NY, USA) from mouse, rat, dog, or human (BioIVT, Hicksville, NY, USA) at 0.5 million viable hepatocytes/mL. Before adding the hepatocytes (time zero) and after 10, 20, 45, 90, 120, and 180 min of incubation (n = 2) at 37 °C while gently shaking, the reaction was stopped and proteins were precipitated with an excess of acetonitrile containing an internal standard. The samples were mixed, centrifuged, and filtered, and the supernatant was analyzed by liquid chromatography–mass spectrometry/mass spectrometry (LC–MS/MS). The instrument responses (peak areas/IS peak areas) were referenced to the zero-time point samples (considered as 100%) in order to determine the percentage of compound remaining.

[2] = Plasma protein binding, rat; type: in vitro ADME; conditions: pH 7.4, read-out: PPB % rat (converted)
Experimental: (§1) Plasma protein binding was determined by equilibrium dialysis using the Pierce Red Device plate with inserts (ThermoScientific). Test compound at 5 μM (0.5% DMSO) spiked in freshly thawed human, rat, mouse, or dog plasma (Bioreclamation INC, Westbury, NY, USA) was dialyzed against phosphate-buffered saline (PBS, pH 7.4) at 37 °C under shaking for 4 h. Aliquots were taken from each side of the well, and matrix matched. Proteins were precipitated with an excess of acetonitrile, samples were mixed and centrifuged, and the supernatant was analyzed by liquid chromatography–mass spectrometry/mass spectrometry (LC–MS/MS). Addition of compound peak areas in the buffer chamber and the plasma chamber was considered to be 100% compound.

[3] = Plasma protein binding, dog; type: in vitro ADME; conditions: for fraction unbound at 4 h, 5 μM: dog, pH 7.4, dog plasma, read-out: PPB % dog (converted)
Experimental: as §1

PK rat = type: in vivo; conditions: for CLu rat: unbound clearance; for clearance: read-out: CLp rat (converted); for Vd: read-out: Vss rat
Experimental: These studies were performed with naïve male Sprague–Dawley rats (Janvier France, 6–8 weeks old). Rats were dosed iv via a bolus in the tail vein with a dose level of 0.1 mg/kg or orally as a single esophageal gavage with a dose level of 5 mg/kg. For the iv route, the compound was formulated in PEG200/water (60/40; v/v). For the oral route, the compound was formulated in MC 0.5% (2/98) as a homogeneous suspension. Before the oral dosing, the animals were deprived of food for at least 12 h before compound administration until 3 h after administration. All animals had free access to the tap water. Blood samples were collected under light anesthesia and placed into tubes containing Li-heparin as an anticoagulant. Blood samples were collected up to 24 h after dosing (n = 3 rats per route). After centrifugation, the resulting plasma samples were assayed by LC-MS/MS with a nongood laboratory practice (non-GLP)-validated method. PK parameters were calculated by noncompartmental analysis using WinNonlin software (Certara, Princeton, NJ, USA).

PK dog = type: in vivo; conditions: for CLu dog: unbound clearance; for clearance: read-out: CLp dog (converted); for Vd: read-out: Vss dog
Experimental: These studies were performed with non-naïve male Beagle dogs (age 13.8 months old, origin: Marshall US, North Rose, NY 14516, USA; age 15.8 months old, origin: Harlan; age 17.7 months old, origin: Harlan). Dogs (n = 3) were dosed iv via a 10 min infusion via a catheter with a dose level of 1 mg/kg. After a washout of 3 days, they were dosed orally as a single gavage with a dose level of 5 or 1 mg/kg in PEG400/MC 0.5% or MC 0.5%. Before administration by the po route, animals were fasted for a period of at least 12 h before treatment, and food was given just after the 3 h of blood sampling. All animals had free access to tap water. Blood samples were taken without an anesthetic from a jugular or cephalic vein into tubes containing lithium heparin as an anticoagulant. Blood samples were taken up to 24 h after the start of the infusion. After centrifugation, the resulting plasma samples were assayed by LC-MS/MS with a nongood laboratory practice (non-GLP)-validated method. PK parameters were calculated by noncompartmental analysis using WinNonlin software (Certara, Princeton, NJ, USA).

CYP3A4 = CYP3A4 induction (mRNA) in human hepatocytes; type: in vitro ADME; conditions: for CYP (3A4) mRNA induction, result in words: compared with positive control rifampicin
Experimental: Cryopreserved human hepatocytes from a single donor were seeded at 0.1 × 10^6 cells/well. The next day, cells were dosed with test compound in assay medium (final test compound concentration 10 μM; final DMSO concentration 0.1%). Positive control inducer, rifampicin, for CYP3A4, was incubated alongside the test compound. Negative control wells were included where the test compound is replaced by vehicle solvent (0.1% DMSO in assay medium). Each test or control compound was dosed in triplicate at a single concentration (10 μM). The cells were exposed to the solutions for 72 h with fresh solution added every 24 h. For mRNA assessment, all media was removed from each of the wells, and the cells were washed once. The cells were lysed, and total RNA was then isolated from the hepatocyte lysates. Reverse transcription was performed, and quantitative PCR analysis was performed on the resulting cDNA, using gene-specific primer probe sets for CYP3A4 target cDNA and endogenous control. Samples were analyzed using an ABI 7900 HT real time PCR system. For mRNA assessment, relative fold mRNA expression was determined based on the threshold cycle (CT) data of target gene relative to endogenous control for each reaction and normalized to negative control using the 2-ΔΔCT method. Data were expressed as fold activation relative to the vehicle control and, as a percent, to the 10 μM rifampicin using the following formula: % of positive control = ((fold increase of the cpd relative to vehicle control – 1)/(fold increase of the rifampicin at 10 μM – 1)) × 100.

[4] = male, Sprague-Dawley, plasma, 0.1 mg/kg, iv
[5] = male, Sprague-Dawley, plasma, 0.1 mg/kg, iv, read-out: t1/2 iv rat (converted)
[6] = male, Sprague-Dawley, plasma, iv, 0.1 mg/kg, iv
[7] = male, beagle, plasma, 1 mg/kg, iv

Row | CLu rat (PK rat; iv) | clearance (PK rat; [4]) | Vd (PK rat; [6]) | CLu dog (PK dog; iv) | clearance (PK dog; [7]) | Vd (PK dog; [7]) | CYP induction @10 μM (mRNA) % rifampicin (CYP3A4; data generated by AbbVie team) | CYP induction @10 μM (mRNA) % rifampicin (CYP3A4; data generated by Galapagos) | SMILES | CYP (3A4) mRNA induction, result in words (CYP3A4) | also measured
1 | 333 mL/min/kg | 5.33 mL/min/kg | 1.38 L/kg | 178 mL/min/kg | 3.5 mL/min/kg | 1.37 L/kg | 4% | 6% | COC1CCN(C2CCN(c3cc(C(=O)NS(=O)(=O)N(C)C)nc4c3c(C3CCC3)nn4-c3ccc(F)cc3)CC2)CC1 [Compound 52, 3-Cyclobutyl-N-(N,N-dimethylsulfamoyl)-1-(4-fluorophenyl)-4-(4-methoxy-[1,4′-bipiperidin]-1′-yl)-1H-pyrazolo[3,4-b]pyridine-6-carboxamide] | devoid of any CYP mRNA induction liability | Hepatocyte stability: %LBF rat ([1]; rat hepatocytes): 30 %LBF; Hepatocyte stability: predicted hepCl rat ([1]; rat hepatocytes, 1 µM): 25.5 mL/min/kg; CLint scaled at 1 μM ([1]; rat hepatocytes): 66.2 mL/min/kg; fraction unbound at 4 h, 5 μM ([2]; rat): 0.016; fraction unbound at 4 h, 5 μM ([3]; dog plasma): 0.025; F (%) rat (PK rat; 30 mg/kg po): 69.1%; exposure versus dose (PK rat; dose of 5 to 300 mg/kg): dose proportional increase in exposure; half-life (PK rat; [5]): 3.45 h; F (%) dog (PK dog; 5 mg/kg po): 59.5%; half-life (PK dog; male, beagle, plasma, 1 mg/kg, iv, read-out: t1/2 iv dog (converted)): 5.4 h
2 | 220 mL/min/kg | 3.17 mL/min/kg | 0.81 L/kg | 202 mL/min/kg | 2.67 mL/min/kg | 0.9 L/kg | 45% | 24% | CN(C)S(=O)(=O)NC(=O)c1cc(N2CCC(N3CCOCC3)CC2)c2c(C3CCC3)nn(-c3ccc(F)cc3)c2n1 [Compound 51] | demonstrated CYP mRNA induction | CLint scaled at 1 μM ([1]; pooled cryopreserved hepatocytes in suspension): 49 mL/min/kg; fraction unbound at 4 h, 5 μM [2]: 0.015; PPB % dog ([3]; dog plasma): 98,7%; fraction unbound at 4 h, 5 μM ([3]; plasma): 0.01; half-life at 24 h (PK rat; [5]): 3.6 h; half-life at 24 h (PK dog; male, beagle, plasma, 0.1 mg/kg, iv, read-out: t1/2 iv dog (converted)): 4.9 h
